Bridge positions count the residues as written; N and C are the ends. Ends that are not written are not given here. I, II: the chains in the order shown.
Key:
[1] = test system: sera from rabbits immunized with BI400-B binding to C5/gp41 (015/201); assay: Competitive ELISA for rabbit sera after immunization with BI400-B; conditions: for inhibition of antibody binding to C5/gp41 (015/201): antigen 10-1000 μM preincubated with rabbit serum 4° C. overnight, FIG. 3
Procedure: 50-100 μl of a mixture of BI400-015 and -201 (pre-incubated in Coating buffer—0.05M Na2CO3 pH9.6; denoted CB—in cold at 16 μg/ml for each peptide 1-3 days prior to coating) or just CB (background control) was used for coating wells in microtiter plates at 4° C. overnight. Plates were then washed 3× with washing buffer (PBS+1% v/v Triton-X100; denoted WB), followed by 2 h blocking at room temperature (RT) with 200 μl/well of blocking buffer (PBS+1% w/v BSA). Plates were then washed 3× with WB, followed by 1 h incubation at 37° C. with 60-100 μl/well of added rabbit serum samples (diluted 1:10-1:250 final concentration) preincubated together (4° C. overnight) with serial dilutions (ranging from 10-1000 μM final concentration) of 400-SEQ.B, BI400-015, BI400-201, BI400-204d, recombinant gp41 (Shin-Won Scientific, SWO 102 gp41), BI301-23 (irrelevant protein; control), no peptide (i.e. PBS; control), LTNP-sera pools (diluted 1:10 final concentration), or Blood donor sera-pools (diluted 1:10 final concentration; control). Plates were then washed 6× with WB, followed by 1 h incubation at RT with 70 μl/well of Alkaline Phosphatase-conjugated Goat-anti-Rabbit-Ig (6 μg/ml; Dako D0487). Plates were then washed 6× with WB, followed by 10-60 min incubation at RT with 100 μl/well of 0.3% w/v of Phenoftalein monophosphate (Sigma P-5758). Plates were finally quenched by adding 100 μl/well of Quench solution (0.1M TRIS+0.1M EDTA+0.5M NaOH+0.01% w/v NaN3; pH14), followed by ELISA reader (ASYS UVM 340) at 550 nm.

C5/gp41 (015/201) = assay: Rabbit immunization with BI400-B vaccine, serum ELISA; format: in vivo; conditions: rabbits immunized intradermally weeks 0, 2 & 6, 500 μg in Freund's adjuvant; in the presence of PBS; FIG. 3
Procedure: New Zealand White female rabbits (n=3) were immunized intradermally at weeks 0, 2 & 6 with 1 ml of BI400-B vaccine consisting of 500 μg BI400-B in 50% V/V Freund's adjuvant (i.e. Complete Freund's adjuvant used for priming, followed by boostings with Incomplete Freund's adjuvant). Individual blood serum was isolated for ELISA.
50-100 μl of a mixture of BI400-015 and -201 (pre-incubated in Coating buffer—0.05M Na2CO3 pH9.6; denoted CB—in cold at 16 μg/ml for each peptide 1-3 days prior to coating) or just CB (background control) was used for coating wells in microtiter plates at 4° C. overnight. Plates were then washed 3× with washing buffer (PBS+1% v/v Triton-X100; denoted WB), followed by 2 h blocking at room temperature (RT) with 200 μl/well of blocking buffer (PBS+1% w/v BSA). […] Plates were finally quenched by adding 100 μl/well of Quench solution (0.1M TRIS+0.1M EDTA+0.5M NaOH+0.01% w/v NaN3; pH14), followed by ELISA reader (ASYS UVM 340) at 550 nm.

individual human sera = assay: ELISA plate seroreactivity of individual human sera (LTNP, HIV chronically infected, blood donors); format: binding; conditions: FIG. 2, OD
Procedure: Seroreactivities of individual LTNP patient sera to SEQ ID NO: 47 (16 μg) alone and in combination with SEQ ID NO: 6 (16 μg) were determined using an ELISA plate as a solid support. Sheep anti-C5 antibodies were used as a positive control. Optical density (OD) at […] was used as a read out following the enzymatic reaction from protein G coupled to alkaline phosphatase.

Substance	cross competition of anti-C5/gp41 rabbit sera by LTNP-sera pools ([1]; LTNP-sera pools diluted 1:10, FIG. 4)	inhibition of antibody binding to C5/gp41 (015/201) [1]	binding of sera from immunized rabbits to C5/gp41 peptides (C5/gp41 (015/201))	magnitude of response among LTNP patients compared to patients chronically infected with HIV (individual human sera; individual sera)	responses in blood donors (individual human sera; negative control sera)
BI400-B: SEQ ID NO: 38 and SEQ ID NO: 39 linked via Cys and Lys residues; vaccine antigen (chain 1 GAKRRVVGGCGGAKRRVVQREKRAGEREKRA; chain 2 GKGGIEEEGGRDRDRGGEQDRDR; bridge I:10-II:2 (inferred))	competitively inhibited	could be inhibited	bound to peptides corresponding to C5/gp41 (015/201)		
GGAIVNGSLADDDIVI [204d, peptide derived from C2]		could be inhibited			
APTKAKRRVVQREKR (Artificial sequene) [SEQ ID NO: 47]				greater response	consistently low
201: gp41 peptide (DRPEGIEEEGGERDR) [compound 201]		could be inhibited			

Source: patent US10251949B2, “Stabilized HIV-1 peptide constructs comprising the gp120 C5 domain and gp41 hydrophilic domain” (Bionor Immuno AS, priority 2009, dated 2019)
